Source: the NIST ThermoML archive (doi:10.1021/acs.jced.7b00035)
Values joined by “and” are separate entries in the source; they are usually repeats but may differ in a detail not shown here. Equal entries are not always repeated. Numbers after ± are expanded uncertainties.

What was measured:
[1] = xn = mol fraction of the nth substance listed; conditions: 100 kPa, Liquid, Vibrating tube method
[2] = excess molar enthalpy (molar enthalpy of mixing); xn = mol fraction of the nth substance listed; conditions: 100 kPa, Liquid, Flow calorimetry

CC(=O)C(C)C [3-methyl-2-butanone] + O
Conditions | excess molar enthalpy, [2] | mass density, [1]
288.15 K, x1 = 0.000837 | -0.0025 kcal/mol | 998.559 ± 0.034 kg/m3 and 998.558 ± 0.034 kg/m3
288.15 K, x1 = 0.001672 | -0.00495 kcal/mol and -0.00497 kcal/mol | 998.026 ± 0.036 kg/m3 and 998.025 ± 0.036 kg/m3
288.15 K, x1 = 0.002505 | -0.00739 ± 0.000263 kcal/mol | 997.502 ± 0.038 kg/m3
288.15 K, x1 = 0.002506 | -0.0074 ± 0.000263 kcal/mol | 997.502 ± 0.038 kg/m3
288.15 K, x1 = 0.003337 | -0.00974 ± 0.000335 kcal/mol | 996.996 ± 0.067 kg/m3
288.15 K, x1 = 0.003339 | -0.00976 ± 0.000335 kcal/mol | 996.993 ± 0.04 kg/m3
288.15 K, x1 = 0.004168 | -0.0121 ± 0.000359 kcal/mol | 996.494 ± 0.043 kg/m3
288.15 K, x1 = 0.004171 | -0.0121 ± 0.000359 kcal/mol | 996.488 ± 0.043 kg/m3
288.15 K, x1 = 0.004998 | -0.0145 ± 0.00043 kcal/mol | 995.988 ± 0.046 kg/m3
288.15 K, x1 = 0.005001 | -0.0144 ± 0.00043 kcal/mol | 996 ± 0.046 kg/m3
298.15 K, x1 = 0.000836 | -0.00207 kcal/mol | 996.47 ± 0.035 kg/m3
298.15 K, x1 = 0.001671 | -0.00411 ± 0.00022 kcal/mol | 995.897 ± 0.037 kg/m3
298.15 K, x1 = 0.001672 | -0.00411 ± 0.00022 kcal/mol | 995.899 ± 0.037 kg/m3
298.15 K, x1 = 0.002505 | -0.00612 kcal/mol and -0.00606 kcal/mol | 995.337 ± 0.039 kg/m3 and 995.348 ± 0.039 kg/m3
298.15 K, x1 = 0.003337 | -0.00802 kcal/mol and -0.00799 kcal/mol | 994.799 ± 0.042 kg/m3 and 994.805 ± 0.042 kg/m3
298.15 K, x1 = 0.004166 | -0.00989 ± 0.000335 kcal/mol | 994.261 ± 0.045 kg/m3
298.15 K, x1 = 0.004168 | -0.00994 ± 0.000335 kcal/mol | 994.254 ± 0.045 kg/m3
298.15 K, x1 = 0.004994 | -0.0118 ± 0.000359 kcal/mol | 993.729 ± 0.063 kg/m3
298.15 K, x1 = 0.004998 | -0.0118 ± 0.000359 kcal/mol | 993.722 ± 0.063 kg/m3
308.15 K, x1 = 0.000836 | -0.00164 ± 0.000198 kcal/mol | 993.424 ± 0.036 kg/m3
308.15 K, x1 = 0.000837 | -0.00163 ± 0.000198 kcal/mol | 993.426 ± 0.036 kg/m3
308.15 K, x1 = 0.001672 | -0.00322 kcal/mol and -0.00323 kcal/mol | 992.827 ± 0.038 kg/m3 and 992.824 ± 0.038 kg/m3
308.15 K, x1 = 0.002504 | -0.00478 ± 0.000229 kcal/mol | 992.235 ± 0.041 kg/m3
308.15 K, x1 = 0.002506 | -0.00482 ± 0.000229 kcal/mol | 992.224 ± 0.041 kg/m3
308.15 K, x1 = 0.003336 | -0.00632 ± 0.000263 kcal/mol | 991.647 ± 0.044 kg/m3
308.15 K, x1 = 0.00334 | -0.00634 ± 0.000263 kcal/mol | 991.646 ± 0.044 kg/m3
308.15 K, x1 = 0.004167 | -0.00783 ± 0.000287 kcal/mol | 991.064 ± 0.047 kg/m3
308.15 K, x1 = 0.004171 | -0.00781 ± 0.000287 kcal/mol | 991.067 ± 0.047 kg/m3
308.15 K, x1 = 0.005001 | -0.00926 ± 0.000311 kcal/mol | 990.494 ± 0.063 kg/m3
318.15 K, x1 = 0.000836 | -0.00121 kcal/mol | 989.576 ± 0.038 kg/m3 and 989.578 ± 0.038 kg/m3
318.15 K, x1 = 0.00167 | -0.00239 ± 0.000206 kcal/mol | 988.947 ± 0.04 kg/m3
318.15 K, x1 = 0.001671 | -0.00239 ± 0.000206 kcal/mol | 988.945 ± 0.04 kg/m3
318.15 K, x1 = 0.002338 | -0.0033 ± 0.000213 kcal/mol | 988.447 ± 0.042 kg/m3
318.15 K, x1 = 0.002505 | -0.00353 ± 0.000215 kcal/mol | 988.318 ± 0.043 kg/m3
318.15 K, x1 = 0.003336 | -0.00465 ± 0.000225 kcal/mol | 987.702 ± 0.053 kg/m3
318.15 K, x1 = 0.003337 | -0.00465 ± 0.000227 kcal/mol | 987.696 ± 0.046 kg/m3
318.15 K, x1 = 0.004167 | -0.00571 ± 0.000263 kcal/mol | 987.091 ± 0.07 kg/m3
318.15 K, x1 = 0.004168 | -0.00573 ± 0.000239 kcal/mol | 987.083 ± 0.05 kg/m3
318.15 K, x1 = 0.004997 | -0.00677 ± 0.000263 kcal/mol | 986.477 ± 0.054 kg/m3
318.15 K, x1 = 0.004998 | -0.00677 ± 0.000263 kcal/mol | 986.481 ± 0.053 kg/m3

CC(=O)CC(C)C [4-methylpentan-2-one] + O
Conditions | excess molar enthalpy, [2] | mass density, [1]
288.15 K, x1 = 0.000573 | -0.00173 ± 0.000198 kcal/mol | 998.669 ± 0.037 kg/m3
288.15 K, x1 = 0.000574 | -0.00174 ± 0.000198 kcal/mol | 998.655 ± 0.037 kg/m3
288.15 K, x1 = 0.00086 | – | 998.405 ± 0.042 kg/m3 and 998.422 ± 0.091 kg/m3
288.15 K, x1 = 0.001146 | -0.00341 ± 0.000239 kcal/mol | 998.224 ± 0.048 kg/m3
288.15 K, x1 = 0.001147 | -0.00344 ± 0.000239 kcal/mol | 998.21 ± 0.038 kg/m3
288.15 K, x1 = 0.001432 | -0.00429 ± 0.000382 kcal/mol | 997.995 ± 0.057 kg/m3
288.15 K, x1 = 0.001434 | -0.00425 ± 0.000382 kcal/mol | 998.001 ± 0.057 kg/m3
288.15 K, x1 = 0.001718 | -0.00512 ± 0.000478 kcal/mol | 997.779 ± 0.086 kg/m3
288.15 K, x1 = 0.00172 | -0.00508 ± 0.000478 kcal/mol | 997.788 ± 0.086 kg/m3
288.15 K, x1 = 0.002004 | -0.00591 ± 0.000311 kcal/mol | 997.592 ± 0.25 kg/m3
288.15 K, x1 = 0.002006 | -0.00591 ± 0.000311 kcal/mol | 997.567 ± 0.25 kg/m3
298.15 K, x1 = 0.000574 | -0.00135 kcal/mol and -0.00134 kcal/mol | 996.572 ± 0.038 kg/m3 and 996.58 ± 0.038 kg/m3
298.15 K, x1 = 0.00086 | -0.002 ± 0.000201 kcal/mol | 996.345 ± 0.038 kg/m3
298.15 K, x1 = 0.000861 | -0.00203 ± 0.000201 kcal/mol | 996.319 ± 0.038 kg/m3
298.15 K, x1 = 0.001146 | -0.00269 ± 0.000263 kcal/mol | 996.114 ± 1.8 kg/m3
298.15 K, x1 = 0.001148 | -0.00271 ± 0.000239 kcal/mol | 996.078 ± 1.7 kg/m3
298.15 K, x1 = 0.001433 | -0.0033 ± 0.000287 kcal/mol | 995.875 ± 2.4 kg/m3
298.15 K, x1 = 0.001435 | -0.00335 ± 0.000287 kcal/mol | 995.871 ± 2.4 kg/m3
298.15 K, x1 = 0.001718 | -0.00394 ± 0.000287 kcal/mol | 995.624 ± 2 kg/m3
298.15 K, x1 = 0.001721 | -0.00397 ± 0.000263 kcal/mol | 995.64 ± 1.6 kg/m3
298.15 K, x1 = 0.002004 | -0.00459 ± 0.000406 kcal/mol | 995.417 ± 2.2 kg/m3
298.15 K, x1 = 0.002007 | -0.00455 ± 0.00043 kcal/mol | 995.402 ± 1.7 kg/m3
308.15 K, x1 = 0.000573 | -0.000968 ± 0.000194 kcal/mol | 993.534 ± 0.039 kg/m3 and 993.533 ± 0.039 kg/m3
308.15 K, x1 = 0.000859 | -0.00147 kcal/mol | 993.283 ± 0.039 kg/m3 and 993.282 ± 0.039 kg/m3
308.15 K, x1 = 0.001145 | -0.00193 kcal/mol and -0.00192 kcal/mol | 993.03 ± 0.04 kg/m3 and 993.053 ± 0.04 kg/m3
308.15 K, x1 = 0.001431 | -0.00239 kcal/mol and -0.00238 kcal/mol | 992.791 ± 0.041 kg/m3 and 992.795 ± 0.041 kg/m3
308.15 K, x1 = 0.001716 | -0.00285 ± 0.000222 kcal/mol | 992.542 ± 0.042 kg/m3
308.15 K, x1 = 0.001717 | -0.00288 ± 0.000222 kcal/mol | 992.525 ± 0.042 kg/m3
308.15 K, x1 = 0.002002 | -0.0033 ± 0.000234 kcal/mol | 992.3 ± 0.052 kg/m3
308.15 K, x1 = 0.002003 | -0.0033 ± 0.000234 kcal/mol | 992.285 ± 0.052 kg/m3
318.15 K, x1 = 0.000573 | -0.000982 kcal/mol and -0.000633 kcal/mol | –
318.15 K, x1 = 0.000859 | -0.00093 kcal/mol and -0.000918 kcal/mol | 989.411 ± 0.041 kg/m3 and 989.421 ± 0.041 kg/m3
318.15 K, x1 = 0.001145 | -0.00122 ± 0.000196 kcal/mol | 989.156 ± 0.041 kg/m3
318.15 K, x1 = 0.001146 | -0.00122 ± 0.000196 kcal/mol | 989.147 ± 0.041 kg/m3
318.15 K, x1 = 0.001431 | -0.00149 ± 0.000198 kcal/mol | 988.905 ± 0.042 kg/m3
318.15 K, x1 = 0.001432 | -0.00148 ± 0.000196 kcal/mol | 988.91 ± 0.042 kg/m3
318.15 K, x1 = 0.001717 | -0.00179 ± 0.000201 kcal/mol | 988.633 ± 0.043 kg/m3
318.15 K, x1 = 0.001718 | -0.00178 ± 0.000201 kcal/mol | 988.636 ± 0.043 kg/m3
318.15 K, x1 = 0.002003 | -0.00204 ± 0.000201 kcal/mol | 988.402 ± 0.044 kg/m3
318.15 K, x1 = 0.002004 | -0.00202 ± 0.000201 kcal/mol | 988.379 ± 0.044 kg/m3
